“Also recorded” adds a separate entry of the source.
Tests used:
AR = biological target: T1, AR (Homo sapiens, UniProt P10275, T878A); assay: Western blotting cellular thermal shift assay for AR in C4-2 cells; assay type: cell-based; conditions: for AR thermal stability at 46° C., compound alone (western blot): hits 20 μM for 1 h at 37° C.; for DHT-enhanced AR thermal stability at 46° C. (western blot): hits 20 μM, 10 nM DHT
T1 construct: the amount of soluble AR protein in heat shocked C4-2 cell lysates; endogenous in cells; host or cells: C4-2 castration resistant prostate cancer cells
T1 sequence (P10275 1-920 T878A): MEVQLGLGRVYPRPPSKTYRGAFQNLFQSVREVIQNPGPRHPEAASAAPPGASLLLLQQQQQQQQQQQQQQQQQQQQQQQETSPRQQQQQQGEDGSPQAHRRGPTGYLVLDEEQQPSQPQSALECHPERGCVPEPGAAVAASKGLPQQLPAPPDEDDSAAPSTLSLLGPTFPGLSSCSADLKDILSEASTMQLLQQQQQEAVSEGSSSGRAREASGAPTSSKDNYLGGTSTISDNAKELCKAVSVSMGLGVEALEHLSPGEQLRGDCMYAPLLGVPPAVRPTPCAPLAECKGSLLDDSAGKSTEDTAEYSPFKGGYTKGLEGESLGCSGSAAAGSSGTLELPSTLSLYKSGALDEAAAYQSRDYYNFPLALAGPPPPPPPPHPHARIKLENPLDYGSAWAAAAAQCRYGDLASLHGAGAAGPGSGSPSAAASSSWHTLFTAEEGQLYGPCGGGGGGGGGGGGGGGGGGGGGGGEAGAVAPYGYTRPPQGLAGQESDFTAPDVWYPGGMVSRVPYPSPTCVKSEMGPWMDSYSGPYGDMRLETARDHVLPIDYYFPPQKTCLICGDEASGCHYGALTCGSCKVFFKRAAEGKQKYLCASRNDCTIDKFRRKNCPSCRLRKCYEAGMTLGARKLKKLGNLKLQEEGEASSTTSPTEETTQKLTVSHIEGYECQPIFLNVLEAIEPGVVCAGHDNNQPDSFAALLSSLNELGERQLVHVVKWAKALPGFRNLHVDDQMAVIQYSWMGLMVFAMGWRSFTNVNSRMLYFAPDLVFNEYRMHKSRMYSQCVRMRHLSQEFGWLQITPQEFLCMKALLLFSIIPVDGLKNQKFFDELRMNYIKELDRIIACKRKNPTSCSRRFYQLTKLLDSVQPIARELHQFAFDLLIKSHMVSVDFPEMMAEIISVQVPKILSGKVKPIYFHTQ
Experimental: (§1) Western Blotting Cellular Thermal Shift Assays for TIF2 and AR Target Engagement in C4-2 Cells: C4-2 cells were harvested by trypsinization, washed 1× by centrifugation at 270×g for 5 min and resuspension in PBS, counted, centrifugated at 270× g for 5 min and resuspended at 7×10^6 cells per mL in Opti-MEM medium (Gibco, Gaithersburg, MD). 50 μL of C4-2 cell suspension (3.5×10^5 cells) were then transferred to PCR tubes that were placed in a T-100 thermocycler (BioRad, Hercules, CA) and a 2° C. interval temperature step gradient from 37° C. to 53° C. was applied. Cells were maintained at each step of the temperature gradient for 5 min and then tubes were withdrawn and placed on ice. 50 μL of cell lysis buffer, 500 mM NaCl, 1% NP-40, 1× protease inhibitor cocktail in PBS were added to the heat shocked cell suspensions in PCR tubes and placed on ice for an additional 30 min. Cell lysates were then centrifuged at 14,000 RPM (18,800×g) at 4° C. for 15 min and supernatants were transferred to new tubes and protein concentrations were determined in a bicinchoninic acid (BCA) assay. 45 μL of cell lysis supernatants were mixed with 15 μL of 5×SDS-PAGE sample buffer and placed in a heat block at 100° C. for 5 min. The protein constituents of heat shocked C4-2 cell lysis supernatants were separated by SDS-PAGE on 8% separating gels, transferred to nitrocellulose membranes that were blocked for 1 h at room temperature in 5% non-fat milk in TBST, and then probed overnight at 4° C. with a 1:1000 dilution of either rabbit anti-AR (Cell Signaling, Danvers, MA) or rabbit anti-TIF2 (Bethyl Laboratories, Waltham, MA) primary antibodies in TBST containing 5% non-fat milk. Membranes were then washed 3× in TBST buffer for 10 min, then incubated with a 1:10,000 dilution of the goat anti-rabbit IgG HRP conjugated secondary antibody (Invitrogen, Carlsbad, CA) in TBST containing 5% non-fat milk for 1 h at room temperature. Western blots were then washed 3× in TBST buffer and developed with Pierce ECL western blotting substrate. Images of ECL western blots were acquired on an iBright™ 1500 imaging system and quantified using the iBright™ image analysis software.

TIF2 = biological target: T2, TIF2 (Homo sapiens, UniProt Q15596); assay: Western blotting cellular thermal shift assay for TIF2 in C4-2 cells; assay type: cell-based; conditions: 20 μM, TIF2 western blots
T2 construct: endogenous in cells; host or cells: C4-2 castration resistant prostate cancer cells
T2 sequence (Q15596 whole entry): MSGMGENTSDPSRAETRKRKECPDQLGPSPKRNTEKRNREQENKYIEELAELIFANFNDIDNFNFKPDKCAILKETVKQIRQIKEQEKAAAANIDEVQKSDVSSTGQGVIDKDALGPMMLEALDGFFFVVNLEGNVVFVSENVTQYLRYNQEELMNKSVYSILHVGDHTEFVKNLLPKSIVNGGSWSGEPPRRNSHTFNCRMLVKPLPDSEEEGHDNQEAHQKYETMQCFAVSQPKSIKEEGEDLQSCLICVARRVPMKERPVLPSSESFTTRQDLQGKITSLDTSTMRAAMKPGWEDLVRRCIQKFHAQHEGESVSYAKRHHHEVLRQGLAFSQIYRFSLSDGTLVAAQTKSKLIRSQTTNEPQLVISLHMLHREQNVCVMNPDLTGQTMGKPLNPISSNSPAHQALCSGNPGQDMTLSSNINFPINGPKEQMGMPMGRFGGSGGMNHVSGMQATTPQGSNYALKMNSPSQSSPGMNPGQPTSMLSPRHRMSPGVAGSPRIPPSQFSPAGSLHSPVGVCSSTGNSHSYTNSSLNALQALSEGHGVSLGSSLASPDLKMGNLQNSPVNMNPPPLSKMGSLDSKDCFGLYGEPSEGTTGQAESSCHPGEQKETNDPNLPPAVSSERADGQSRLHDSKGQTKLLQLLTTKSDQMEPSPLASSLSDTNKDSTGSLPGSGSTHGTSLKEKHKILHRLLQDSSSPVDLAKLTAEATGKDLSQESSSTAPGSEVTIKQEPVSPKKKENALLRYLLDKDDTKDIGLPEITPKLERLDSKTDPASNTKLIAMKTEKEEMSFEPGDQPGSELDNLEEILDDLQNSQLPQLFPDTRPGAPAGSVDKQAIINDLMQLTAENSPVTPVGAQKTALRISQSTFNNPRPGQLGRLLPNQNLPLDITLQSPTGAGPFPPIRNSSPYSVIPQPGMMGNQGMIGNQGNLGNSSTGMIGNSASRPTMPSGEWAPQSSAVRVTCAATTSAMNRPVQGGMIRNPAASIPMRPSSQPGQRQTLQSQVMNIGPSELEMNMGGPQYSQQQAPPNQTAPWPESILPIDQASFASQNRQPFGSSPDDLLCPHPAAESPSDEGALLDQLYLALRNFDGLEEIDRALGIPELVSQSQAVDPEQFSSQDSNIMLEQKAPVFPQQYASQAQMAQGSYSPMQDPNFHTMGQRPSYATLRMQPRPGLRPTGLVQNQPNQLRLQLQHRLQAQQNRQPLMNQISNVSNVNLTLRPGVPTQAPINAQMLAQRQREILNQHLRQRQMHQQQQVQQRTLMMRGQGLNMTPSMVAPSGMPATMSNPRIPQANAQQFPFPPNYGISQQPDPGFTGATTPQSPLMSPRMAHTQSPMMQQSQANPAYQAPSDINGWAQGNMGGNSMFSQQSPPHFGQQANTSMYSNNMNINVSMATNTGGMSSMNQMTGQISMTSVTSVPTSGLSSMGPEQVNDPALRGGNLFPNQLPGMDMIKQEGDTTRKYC
Experimental: as §1

AR thermal stability at 46° C., compound alone (western blot) (AR) | TIF2 thermal stability at 46° C. (TIF2; listed as 6) | SMILES | DHT-enhanced AR thermal stability at 46° C. (western blot) (AR) | TIF2 thermal stability at 46° C. (TIF2)
did not stabilize AR | – | Cc1ccccc1-c1cc(O)c2c(c1)CN(c1nc(C(N)=O)cs1)CCO2 [Compound S1-1] | only partially blocked DHT-enhanced AR stabilization; also recorded: inhibition of DHT-enhanced AR thermal stability | did not enhance TIF2 thermal stability; also recorded: do not enhance TIF2 thermal stability
did not stabilize AR | did not enhance TIF2 stability | Cc1nsc(NC(=O)N2CCC(Sc3ccccc3C)CC2)n1 [Compound S2-6] | blocked DHT-enhanced AR thermal stabilization below DMSO baseline levels; also recorded: inhibition of DHT-enhanced AR thermal stability | did not enhance TIF2 thermal stability; also recorded: do not enhance TIF2 thermal stability
did not stabilize AR | – | Cc1c(-c2ccccc2F)[nH]c2ccc(CNC(=O)CCc3cn[nH]c3)cc12 [Compound S3-11] | only partially blocked DHT-enhanced AR stabilization; also recorded: inhibition of DHT-enhanced AR thermal stability | did not enhance TIF2 thermal stability; also recorded: do not enhance TIF2 thermal stability

Reference: patent publication US20260083751A1, “ALLOSTERIC MODULATORS OF ANDROGEN RECEPTOR COACTIVATOR RECRUITMENT FOR CRPC THERAPY” (University of Pittsburgh – Of the Commonwealth System of …, priority 2022, published 2026)
